Literature values, collected in US7524883B2, “Eponemycin and epoxomicin analogs and uses thereof” (Eisai R&D Management Co., Ltd., priority 2002, dated 2009).

Tested on: 20S proteasome

## CC[C@H](C)[C@H](NC(=O)[C@H]([C@@H](C)CC)N(C)C(C)=O)C(=O)N[C@H](C(=O)N[C@@H](CC(C)C)C(=O)[C@@]1(C)CO1)[C@@H](C)O [Epoxomicin]
  binding to the 20S proteasome: bind covalently and irreversibly

## C=C(C)C[C@H](NC(=O)[C@H](CO)NC(=O)CCCCC(C)C)C(=O)[C@@]1(CO)CO1 [Eponemycin]
  binding to the 20S proteasome: bind covalently and irreversibly
